# Experimental data reported in paper PMC10473532 (PLOS ONE, 2023).
# Like-named read-outs stand apart in the source and are kept apart here.
# Experiments:
# [1] = target: human β3-AR (Homo sapiens, UniProt P13945); assay: cAMP accumulation in CHO-K1 cells expressing human β3-AR; details: for EC50: EC50 β3-AR; for β3-AR selectivity vs β1-AR / β3-AR selectivity vs β2-AR: comparison between EC50 values; for cAMP activity at Cmax,u / cAMP activity at Cmin,u: from dose-response curve, β3-AR cells TF 0.025 μg/well;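 as to all read-outs here: CHO-K1 cells transiently transfected with a β-AR expression plasmid, cAMP assayed roughly 24 h post-transfection, values derived from agonist concentration–response curves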
# human β3-AR, sequence (P13945 whole entry): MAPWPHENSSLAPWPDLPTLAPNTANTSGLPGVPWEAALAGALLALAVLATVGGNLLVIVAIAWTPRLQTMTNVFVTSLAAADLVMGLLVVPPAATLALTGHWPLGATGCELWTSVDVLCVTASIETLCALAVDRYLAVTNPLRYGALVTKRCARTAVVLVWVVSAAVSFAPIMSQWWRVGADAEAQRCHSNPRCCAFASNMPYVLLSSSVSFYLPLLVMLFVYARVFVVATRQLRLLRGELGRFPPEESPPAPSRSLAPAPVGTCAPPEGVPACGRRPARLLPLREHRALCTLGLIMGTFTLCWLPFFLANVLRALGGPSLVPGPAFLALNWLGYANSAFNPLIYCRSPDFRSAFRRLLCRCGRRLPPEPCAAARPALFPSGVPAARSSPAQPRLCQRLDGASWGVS
# Procedure: (§1) Chinese hamster ovary (CHO)-K1 cells (DS Pharma Biomedical Co., Ltd., Osaka, Japan) were cultured in Ham’s F-12 medium containing 10% fetal bovine serum under 5% CO2 at 37°C. For cAMP assay, 2×10^5 cells/mL were inoculated onto a 96-well plate at 100 μL/well. […] The cells were cultured for about 24 h and used for β-AR transfection (see below). The DNA sequences encoding β1-AR (P08588.2), β2-AR (NP_000015.1), or β3-AR (NP_000016.1) were cloned into a pCI-Neo expression vector (Promega, WI, USA). CHO-K1 cells expressing β1-AR, β2-AR, or β3-AR were constructed by transfection with the appropriate plasmid DNA (β1-, β2-, or β3-AR) using Lipofectamine 2000 (Life Technologies Japan Ltd., Tokyo, Japan), according to the manufacturer’s instructions. […] Lipofectamine was diluted with Opti-MEM (0.5 μL Lipofectamine/25 μL Opti-MEM) and incubated for 5 min at room temperature. Solutions containing plasmid DNA and Lipofectamine, respectively, were mixed in equal amounts and incubated for 20 min at room temperature. […] The transfected CHO-K1 cells were then cultured for about 24 h and used for the following experiments. Similar experiments were performed after reducing the amounts of transfected plasmid DNA to 0.05 and 0.025 μg.
# (§2) Cells that had been cultured for about 24 h after transfection were subjected to cAMP assay.
# (§3) In the cAMP assay, the half-maximal effective concentration (EC50) value was calculated for each agonist based on its concentration–response curve using GraphPad Prism 6.0 nonlinear regression analysis.
# [2] = target: T1, human β1-AR (Homo sapiens, UniProt P08588); assay: cAMP accumulation in CHO-K1 cells expressing human β1-AR; type: cell-based;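 also: cells transiently transfected with a β1-AR expression plasmid, seeded in 96-well plates and assayed for cAMP about 24 h after transfection across agonist concentration–response curves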
# T1 construct: expressed in transfected cells; host or cells: CHO-K1 cells, transient transfection with pCI-Neo plasmid (Lipofectamine 2000)
# T1 sequence (P08588 whole entry): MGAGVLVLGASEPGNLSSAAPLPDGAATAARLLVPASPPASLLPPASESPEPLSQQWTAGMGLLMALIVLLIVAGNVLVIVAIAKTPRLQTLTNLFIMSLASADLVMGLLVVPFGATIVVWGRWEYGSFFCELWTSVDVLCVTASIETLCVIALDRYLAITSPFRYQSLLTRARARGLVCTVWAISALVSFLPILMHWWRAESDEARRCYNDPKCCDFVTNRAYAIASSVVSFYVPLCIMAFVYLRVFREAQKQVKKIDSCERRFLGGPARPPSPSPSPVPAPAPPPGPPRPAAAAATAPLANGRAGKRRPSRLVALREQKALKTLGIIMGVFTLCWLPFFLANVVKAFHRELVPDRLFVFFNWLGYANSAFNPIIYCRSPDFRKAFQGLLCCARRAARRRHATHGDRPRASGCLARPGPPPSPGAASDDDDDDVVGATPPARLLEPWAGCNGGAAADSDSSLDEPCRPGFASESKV
# Procedure: as §1, §2, §3
# [3] = unbound plasma concentrations at once-daily 50 mg clinical dose; type: in vivo, human; details: for Cmax,u (unbound maximum plasma concentration): calculated from Cmax and plasma-protein-binding rate; for Cmin,u (unbound minimum plasma concentration): calculated from Cmin and plasma-protein-binding rate
# [4] = target: β1-AR; design: method as in PMID 22430195; details: binding assays; read-out: inhibition constant (Ki) β1-AR; cited from earlier work
# [5] = target: β2-AR; design: method as in PMID 22430195; details: binding assays; read-out: inhibition constant (Ki) β2-AR; cited from earlier work
# [6] = tested on: β3-AR; details: recent study comparing vibegron and mirabegron; cited from earlier work
# [7] = tested on: isolated rat bladder strips; design: method as in PMID 24213882; details: cited from earlier work
# [8] = target: human β2-AR (Homo sapiens, UniProt P07550, E27Q/G16R); assay: cAMP accumulation in CHO-K1 cells expressing human β2-AR; details: for Intrinsic activity β2-AR: isoproterenol max = 1.00
# Procedure: as §1, §2, §3
# [9] = 52-week, cited from earlier work
# [10] = therapeutic doses, clinical trials; cited from earlier work
# [11] = TF 0.05 μg/well, isoproterenol max = 1.00
# [12] = TF 0.1 μg/well, 347 fmol/mg, concentration producing 50% of the maximal response induced by isoproterenol
# [13] = CHO-K1, TF 0.1 μg/well plasmid DNA, cAMP accumulation, read-out: EC50 β1-AR
# [14] = TF 0.025 μg/well, isoproterenol max = 1.00
# [15] = TF 0.025 μg/well, read-out: EC50 β1-AR
# [16] = TF 0.05 μg/well, read-out: EC50 β1-AR
# [17] = TF 0.1 μg/well, maximal response of isoproterenol = 1.00
# [18] = EC50 β2-AR, CHO-K1, TF 0.1 μg/well plasmid DNA, cAMP accumulation
# [19] = CHO-K1, TF 0.1 μg/well plasmid DNA, cAMP accumulation
Structure (SMILES),"Iso50 ([1]; TF 0.025 μg/well, 116 fmol/mg) [nM]","Iso50 ([1]; TF 0.05 μg/well, 222 fmol/mg) [nM]","Intrinsic activity β3-AR [1, 11]","Iso50 [1, 12] [nM]","EC50 [2, 13] [µM]","Intrinsic activity β1-AR [2, 14]","EC50 [2, 15] [µM]","Intrinsic activity β1-AR [2, 11]","EC50 [2, 16] [µM]","Intrinsic activity β1-AR [2, 17]","EC50 [8, 18] [µM]","EC50 ([8]; EC50 β2-AR, TF 0.025 μg/well) [µM]","EC50 ([8]; EC50 β2-AR, TF 0.05 μg/well) [µM]",Intrinsic activity β2-AR ([8]; TF 0.05 μg/well),"EC50 [1, 19] [µM]",EC50 ([1]; TF 0.025 μg/well) [µM],EC50 ([1]; TF 0.05 μg/well) [µM],"Intrinsic activity β3-AR [1, 17]",β3-AR selectivity vs β1-AR ([1]; TF 0.1 μg/well),β3-AR selectivity vs β2-AR ([1]; TF 0.1 μg/well),also measured
"CC(C)NC[C@H](O)c1ccc(O)c(O)c1 [Isoproterenol, (–)-isoprenaline (+)-bitartrate]",78.0 ± 10.9,37.9 ± 6.40,(0.96 ± 0.02),11.8 ± 1.78,–,–,–,–,–,–,–,–,–,–,–,–,–,–,–,–,–
"Nc1nc(CC(=O)Nc2ccc(CCNC[C@H](O)c3ccccc3)cc2)cs1 [Mirabegron, mirabegron]",26.9 ± 7.51,4.45 ± 0.66,(0.84 ± 0.04),1.32 ± 0.26,0.594 ± 0.122,(0.25 ± 0.03),> 10,(0.38 ± 0.02),> 10,(0.59 ± 0.02),0.57 ± 0.235,> 10,> 10,(0.31 ± 0.05),0.00115 ± 0.00024,0.00417 ± 0.00089,0.00281 ± 0.0006,(0.94 ± 0.02),517,496,"Cmax,u (unbound maximum plasma concentration) [3]: 20 nM; Cmin,u (unbound minimum plasma concentration) [3]: 3 nM; Ki [4]: 0.383 µM; Ki [5]: 0.977 µM; IA (Emax) [6]: 80.4%; attenuation of bladder relaxant effect after pretreatment, washout and fresh addition [7]: did not produce such attenuation; Iso50 ([1]; TF 0.025 μg/well, 116 fmol/mg, listed as mirabegron): 26.9 nM; Intrinsic activity β3-AR ([1]; TF 0.05 μg/well, isoproterenol max = 1.00, listed as mirabegron): 0.84; Intrinsic activity β3-AR ([1]; TF 0.1 μg/well, maximal response of isoproterenol = 1.00, listed as mirabegron): 0.94; cAMP activity at Cmax,u [1]: about 53%; cAMP activity at Cmin,u [1]: about 27%"
"Cc1cc(OCC(=O)O)c(C)cc1CCN[C@@H](C)[C@H](O)c1ccc(O)cc1 [Ritobegron, ritobegron]",943 ± 244,303 ± 60.7,(1.00 ± 0.07),81.5 ± 15.4,> 10,(0.04 ± 0.01),> 10,(0.11 ± 0.02),> 10,(0.33 ± 0.03),2.27 ± 1.34,> 10,> 10,(0.32 ± 0.05),0.0808 ± 0.0126,1.52 ± 0.95,0.398 ± 0.104,(0.99 ± 0.02),>124,28.1,"Iso50 ([1]; TF 0.025 μg/well, 116 fmol/mg, listed as ritobegron): 943 nM; Intrinsic activity β3-AR ([1]; TF 0.05 μg/well, isoproterenol max = 1.00, listed as ritobegron): 1.00; Intrinsic activity β3-AR ([1]; TF 0.1 μg/well, maximal response of isoproterenol = 1.00, listed as ritobegron): 0.99"
"O=C(O)c1cccc(-c2cccc(NCCNC[C@H](O)c3cccc(Cl)c3)c2)c1 [Solabegron, solabegron]",252 ± 78.4,119 ± 27.1,(0.91 ± 0.10),31.0 ± 10.8,0.588 ± 0.105,(0.25 ± 0.06),> 10,(0.28 ± 0.04),> 10,(0.60 ± 0.04),> 10,> 10,> 10,(0.20 ± 0.02),0.0276 ± 0.00908,0.0836 ± 0.029,0.0851 ± 0.00584,(0.96 ± 0.03),21.3,>362,"Iso50 ([1]; TF 0.025 μg/well, 116 fmol/mg, listed as solabegron): 252 nM; Intrinsic activity β3-AR ([1]; TF 0.05 μg/well, isoproterenol max = 1.00, listed as solabegron): 0.91; Intrinsic activity β3-AR ([1]; TF 0.1 μg/well, maximal response of isoproterenol = 1.00, listed as solabegron): 0.96"
O=C(Nc1ccc(C[C@@H]2CC[C@H]([C@H](O)c3ccccc3)N2)cc1)[C@@H]1CCc2nccc(=O)n21 [Vibegron],22.5 ± 14.5,3.74 ± 0.73,(1.00 ± 0.03),1.26 ± 0.29,> 10,(0.00 ± 0.00),> 10,(0.02 ± 0.01),> 10,(0.10 ± 0.01),> 10,> 10,> 10,(0.09 ± 0.03),0.00126 ± 0.0004,0.0125 ± 0.00241,0.00383 ± 0.00093,(0.93 ± 0.05),>7937,>7937,"EC50 ([2]; TF 0.1 μg/well, read-out: EC50 in cells expressing β1-ARs): > 10 µM; β1-AR agonist activity ([2]; cells TF 0.05 μg/well (245 fmol/mg)): no β1-AR agonist activity; Cmax,u (unbound maximum plasma concentration) [3]: 56 nM; Cmin,u (unbound minimum plasma concentration) [3]: 14 nM; IA (Emax) [6]: 99.2%; attenuation of efficacy ([9]; 50 mg and 100 mg): not observed; vital signs (systolic blood pressure, diastolic blood pressure, and pulse) ([9]; supratherapeutic dose 100 mg): did not affect vital signs; incidence of increased blood pressure and hypertension [10]: does not affect the incidence of increased blood pressure and hypertension; EC50 ([8]; EC50 in cells expressing β2-ARs, TF 0.1 μg/well): > 10 µM; β2-AR agonist activity ([8]; lowest β2-AR density 108 fmol/mg): no β2-AR agonist activity; Iso50 ([1]; TF 0.025 μg/well, 116 fmol/mg, listed as vibegron): 22.5 nM; Intrinsic activity β3-AR ([1]; TF 0.05 μg/well, isoproterenol max = 1.00, listed as vibegron): 1.00; β3-AR selectivity, higher than for β1-ARs ([1]; TF 0.1 μg/well): > 7937 fold; β3-AR selectivity, higher than for β2-ARs ([1]; TF 0.1 μg/well): > 7937 fold; Intrinsic activity β3-AR ([1]; TF 0.1 μg/well, maximal response of isoproterenol = 1.00, listed as vibegron): 0.93; cAMP activity at Cmax,u [1]: about 82%; cAMP activity at Cmin,u [1]: ~59%"
CC(Cc1ccc(O)cc1)NCC(O)c1cc(O)cc(O)c1 (centres unmarked) [fenoterol],–,–,–,–,–,–,–,–,–,–,–,–,–,–,–,–,–,–,–,–,"attenuation of bladder relaxant effect after pretreatment, washout and fresh addition [7]: marked attenuation of the bladder relaxant effect"
